# Laboratory results reported in US8440819B2, “Therapeutic substituted beta-lactams” (Allergan, Inc., priority 2008, dated 2013).
# Experiments:
# [1] = test system: laser-induced hypertensive monkeys; experiment: Intraocular pressure in laser-induced hypertensive monkeys; assay type: in vivo, monkey; settings: 0.01%, one single day dose, at 24 h
# Protocol: (§1) U.S. Pat. No. 7,091,231 describes the methods used to carry out the tests reported below.
# (§2) Isopropyl (5-(3-((2S)-1-(4-(1-hydroxyhexyl)phenyl)-4-oxoazetidin-2-yl)propyl)thiophene-2-carboxylate (12) was tested in normotensive dogs at 0.01%, dosing once daily for 5 days. The maximum intraocular pressure (IOP) decrease from baseline was 3.7 mmHg (25%) at 6 h; the maximum ocular surface hyperemia (OSH) score was 1.7 at 50 h. This compound was also tested in laser-induced hypertensive monkeys, using one single day dose. At 0.01%, the maximum IOP decrease from baseline was 12.6 mmHg (35%) at 24 h.
# normotensive dogs = experiment: Intraocular pressure and ocular surface hyperemia in normotensive dogs; assay type: in vivo, dog; settings: 0.01%, once daily for 5 days
# Protocol: as §1, §2
# EP2 [2] = biological target: T1, EP2 (Homo sapiens, UniProt P43116); experiment: EP2 binding (Ki)
# T1 sequence (P43116 whole entry): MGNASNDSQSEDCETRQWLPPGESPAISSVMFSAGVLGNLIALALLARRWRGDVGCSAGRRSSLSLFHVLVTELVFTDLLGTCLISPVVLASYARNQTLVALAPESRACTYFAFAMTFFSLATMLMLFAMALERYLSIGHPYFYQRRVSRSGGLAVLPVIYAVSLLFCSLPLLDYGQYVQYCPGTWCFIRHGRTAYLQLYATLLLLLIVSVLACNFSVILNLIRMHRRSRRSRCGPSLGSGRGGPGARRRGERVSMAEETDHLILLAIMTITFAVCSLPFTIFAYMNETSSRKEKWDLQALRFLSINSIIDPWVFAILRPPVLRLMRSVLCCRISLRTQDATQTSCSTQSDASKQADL
# Description: (§3) U.S. patent application Ser. No. 11/553,143, filed on Oct. 26, 2006, incorporated by reference herein, describes the methods used to obtain the in vitro data in Table 1 below.
# EP4 [3] = biological target: T2, EP4 (Homo sapiens, UniProt P35408); experiment: EP4 binding (Ki); settings: read-out: EP4 data Kl
# T2 sequence (P35408 whole entry): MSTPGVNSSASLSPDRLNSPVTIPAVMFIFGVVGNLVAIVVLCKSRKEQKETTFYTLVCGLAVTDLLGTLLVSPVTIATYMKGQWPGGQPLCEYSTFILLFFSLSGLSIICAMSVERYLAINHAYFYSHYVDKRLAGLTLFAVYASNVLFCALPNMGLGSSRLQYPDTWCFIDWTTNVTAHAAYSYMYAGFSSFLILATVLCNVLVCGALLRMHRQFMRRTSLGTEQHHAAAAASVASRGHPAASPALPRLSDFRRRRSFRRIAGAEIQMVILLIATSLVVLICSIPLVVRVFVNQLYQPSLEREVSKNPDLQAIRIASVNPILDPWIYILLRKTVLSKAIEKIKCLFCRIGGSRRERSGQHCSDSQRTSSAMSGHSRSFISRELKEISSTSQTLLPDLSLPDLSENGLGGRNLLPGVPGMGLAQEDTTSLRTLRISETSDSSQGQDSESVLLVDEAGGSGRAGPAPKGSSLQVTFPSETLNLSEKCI
# Description: as §3
# hDP = biological target: T3, hDP (Homo sapiens, UniProt Q13258); experiment: Other receptors functional EC50, hDP; assay type: cell-based
# T3 sequence (Q13258 1-359): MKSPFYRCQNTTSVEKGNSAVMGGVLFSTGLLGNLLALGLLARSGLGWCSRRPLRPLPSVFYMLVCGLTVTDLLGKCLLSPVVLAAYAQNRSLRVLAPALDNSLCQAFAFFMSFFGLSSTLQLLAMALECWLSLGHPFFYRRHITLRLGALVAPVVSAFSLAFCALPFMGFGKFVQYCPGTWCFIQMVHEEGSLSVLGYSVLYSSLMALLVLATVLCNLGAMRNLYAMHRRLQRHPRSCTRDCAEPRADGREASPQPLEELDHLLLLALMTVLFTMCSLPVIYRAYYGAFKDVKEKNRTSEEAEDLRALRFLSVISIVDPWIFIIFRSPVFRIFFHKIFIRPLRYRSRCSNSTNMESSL
# Description: as §3
# EP2 [4] = biological target: T1, EP2; experiment: EP2 flipr; assay type: cell-based
# Description: as §3
# EP4 [5] = biological target: T2, EP4; experiment: EP4 flipr; assay type: cell-based
# Description: as §3
# EP2 [6] = biological target: T1, EP2; experiment: EP2 cAMP; assay type: cell-based
# Description: as §3
# hEP3A = biological target: T4, hEP3A (Homo sapiens, UniProt P43115); experiment: Other receptors functional EC50, hEP3A; assay type: cell-based
# T4 sequence (P43115 1-390): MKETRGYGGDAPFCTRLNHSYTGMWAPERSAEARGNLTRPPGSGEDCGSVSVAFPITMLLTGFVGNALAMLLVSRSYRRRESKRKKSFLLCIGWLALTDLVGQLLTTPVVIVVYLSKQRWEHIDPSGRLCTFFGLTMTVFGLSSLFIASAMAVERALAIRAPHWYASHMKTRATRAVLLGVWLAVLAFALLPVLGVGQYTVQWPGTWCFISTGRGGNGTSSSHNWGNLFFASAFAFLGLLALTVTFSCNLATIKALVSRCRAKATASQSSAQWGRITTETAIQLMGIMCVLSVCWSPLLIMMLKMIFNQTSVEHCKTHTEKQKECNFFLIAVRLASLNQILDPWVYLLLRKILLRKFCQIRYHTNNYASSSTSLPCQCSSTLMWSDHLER
# Description: as §3
SMILES,maximum IOP decrease from baseline [1],"maximum IOP decrease from baseline, percent [1]",maximum intraocular pressure (IOP) decrease from baseline (normotensive dogs; at 6 h),"maximum intraocular pressure (IOP) decrease from baseline, percent (normotensive dogs; at 6 h)",maximum ocular surface hyperemia (OSH) score (normotensive dogs; at 50 h),Ki (EP2 [2]),Ki (EP4 [3]),EC50 (hDP),EC50 (EP2 [4]),EC50 (EP4 [5]),EC50 (EP2 [6]),EC50 (hEP3A)
CCCCCC(O)c1ccc(N2C(=O)C[C@@H]2CCCc2ccc(C(=O)OC(C)C)s2)cc1 (stereo partly drawn) [compound 12],12.6 mmHg,35%,3.7 mmHg,25%,1.7,,,,,,,
CCCCCC(O)c1ccc(N2C(=O)C[C@@H]2CCCc2ccc(C(=O)O)s2)cc1 (mixture of isomers) [compound 11],,,,,,10 nM,1450 nM,4740 nM,1.1 nM,> 10000 nM,0.4 nM,42 nM
